Data from US9409976B2, “CDIM binding proteins and uses thereof” (IGM BIOSCIENCES, INC., priority 2012, dated 2016).
Read-outs that look alike come from different tables or passages of the source.

Experiments:
B cells = assay: Combination of agents with CDIM binding proteins, cytotoxicity to B cells; type: cell-based
[1] = system: CDIM antigen on human pro-B cell line NALM-6; assay: Binding of CDIM binding proteins to CDIM antigen on NALM-6 cells, flow cytometry (MFI); conditions: 1 hour on ice, non-linear regression curve fit
Procedure: This example describes how the binding properties of the disclosed antibodies were investigated. The antibodies were prepared by affinity chromatography. In FIG. 6A, the human pro-B cell line, NALM-6, which expresses the CDIM antigen on the cell surface was stained with the series of recombinant IgM antibodies. The antibodies were used to determine the dose response beginning at 20 μg/tube diluted stepwise by 2, to a final concentration at 0.039 μg. Cells were stained in a 100 μl volume in 3% FBS/PBS on ice for 1 hour followed by a subsequent staining with DyLight-488 conjugated anti-human IgM (Jackson Immuno), 1 μg/ml for 20 minutes at 4 C.
Analysis of CDIM binding was performed on FACScan flow cytometer using CellQuest analysis software. Results are shown as raw data points with Mean Fluorescence Intensity (MFI) on Y-axis and concentration of primary antibody (μg/100 μl) on X-axis.
The data were re-analyzed using GraphPad analysis program to fit the results using non-linear regression curve fit. EC50 (μg/100 μl) for each antibody was (a) 10.6 for IGM1, (b) 2.2 for IGM23, (c) 2.2 for IGM34, and (d) 1.7 for IGM36.

[2] = system: human pro-B cell line NALM-6; assay: Cytotoxicity resulting from cellular binding, propidium iodine uptake; type: cell-based; conditions: NALM-6 cells, viability after 1 hour of staining
Procedure: This example describes how the cytotoxicity of the CDIM binding proteins was investigated. The human pro-B cell line NALM-6 was stained identically as described in FIG. 6A above. In FIG. 6B, cell killing was evaluated by measuring cell viability after 1 hour of staining. […] Results are shown as raw data with % viability on Y-axis and concentration (μg/100 μl) on X-axis.
Identical results were graphed using GraphPad analysis program and data fit using non-linear regression curve fitting. The EC50 was calculated for each antibody using the same approach described above. EC50 (μg/100 μl) for each antibody was (a) 3.0 for IGM1, (b) 0.6 for IGM 23, (c) 0.6 for IGM34, and (d) 0.3 for IGM36.

[3] = combination with CDIM binding proteins

Row | Molecule | Effect of combination with CDIM binding proteins (B cells; [3]) | other results
1 | Nc1ccn([C@@H]2O[C@H](CO)[C@@H](O)[C@@H]2O)c(=O)n1 [Ara-C (Cytarabine), Cytarabine] | Additive Effect | 
2 | COc1cc2c(c(OC)c1OC)-c1ccc(OC)c(=O)cc1[C@@H](NC(C)=O)CC2 [Colchisine] | Synergistic Effect | 
3 | COc1cccc2c1C(=O)c1c(O)c3c(c(O)c1C2=O)C[C@@](O)(C(C)=O)C[C@@H]3O[C@H]1C[C@H](N)[C@H](O)[C@H](C)O1 [Daunorubicin] |  | Effect of combination with CDIM binding proteins (B cells): Additive Effect
4 | COc1cc([C@@H]2c3cc4c(cc3[C@@H](O[C@@H]3O[C@@H]5CO[C@@H](C)O[C@H]5[C@H](O)[C@H]3O)[C@H]3COC(=O)[C@H]23)OCO4)cc(OC)c1O [Etoposide (VP-16), Etoposide] | Additive Effect | 
5 | COC(=O)Nc1nc2ccc(C(=O)c3cccs3)cc2[nH]1 [Nocodazole] | Synergistic Effect | 
6 | CC(=O)O[C@H]1C(=O)[C@@]2(C)[C@H]([C@H](OC(=O)c3ccccc3)[C@]3(O)C[C@H](OC(=O)[C@H](O)[C@@H](NC(=O)c4ccccc4)c4ccccc4)C(C)=C1C3(C)C)[C@]1(OC(C)=O)CO[C@@H]1C[C@@H]2O [Paclitaxel (Taxol), Paclitaxel] | Possible/Undermined | 
7 | CC[C@]1(O)C[C@H]2CN(CCc3c([nH]c4ccccc34)[C@@](C(=O)OC)(c3cc4c(cc3OC)N(C=O)[C@H]3[C@@](O)(C(=O)OC)[C@H](OC(C)=O)[C@]5(CC)C=CCN6CC[C@]43[C@@H]65)C2)C1 [Vincristine] | Synergistic Effect | Effect of combination with CDIM binding proteins (B cells; combination with CDIM binding proteins, listed as vincristine): enhanced degree of cytotoxicity to B cells when compared to the additive effect of each single agent alone
8 | IGM1: IgM; heavy chain H1 (SEQ ID NO:28) with lambda light chain (SEQ ID NO:50) (antibody) heavy: QVQLQQWGAGLLKPSETLSLTCAVYGGSFSGYYWSWIRQPPGKGLEWIGEINHSGSTNYNPSLKSRVTISVDTSKNQFSLKLSSVTAADTAVYYCARGRMAWGASVNFDYWGQGTLVTVSSGSASAPTLFPLVSCENSPSDTSSVAVGCLAQDFLPDSITFSWKYKNNSDISSTRGFPSVLRGGKYAATSQVLLPSKDVMQGTDEHVVCKVQHPNGNKEKNVPLPVIAELPPKVSVFVPPRDGFFGNPRKSKLICQATGFSPRQIQVSWLREGKQVGSGVTTDQVQAEAKESGPTTYKVTSTLTIKESDWLSQSMFTCRVDHRGLTFQQNASSMCVPDQDTAIRVFAIPPSFASIFLTKSTKLTCLVTDLTTYDSVTISWTRQNGEAVKTHTNISESHPNATFSAVGEASICEDDWNSGERFTCTVTHTDLPSPLKQTISRPKGVALHRPDVYLLPPAREQLNLRESATITCLVTGFSPADVFVQWMQRGQPLSPEKYVTSAPMPEPQAPGRYFAHSILTVSEEEWNTGETYTCVVAHEALPNRVTERTVDKSTGKPTLYNVSLVMSDTAGTCY light: DIQMTQSPSTLSASVGDRVTITCTGTSSDVGGYNYVSWYQQHPGKAPKLMIYGVSNRFSGSKSGNTASLTISGLAAEDEADYYCSSYTSSSTLVVFGGGTKLTVLGQPKAAPSVTLFPPSSEELQANKATLVCLISDFYPGAVTVAWKADSSPVKAGVETTTPSKQSNNKYAASSYLSLTPEQWKSHRSYSCQVTHEGSTVEKTVAPTECS |  | EC50 of CDIM binding (MFI) [1]: 10.6 μg/100 μl; EC50 of cytotoxicity (% viability) [2]: 3.0 μg/100 μl
